Consider 2 molecules from patent US9987332B2, “Pharmaceutical composition for use in the treatment of a neurodegenerative disease” (SANOFI-AVENTIS DEUTSCHLAND GMBH, priority 2011, dated 2018).

A short description of data set [1]: Uptake by the brain: levels in mouse brain tissue after i.p. injection. It is filed as in vivo. The settings on record: 2.5 nmol/kg bw ip. The method, then:
Values are the mean±S.E.M. *p<0.05, **p<0.01.
Values are the mean±S.E.M. *p<0.05.
3 doses (2.5 nmol/kg bw, 25 nmol/kg bw and 250 nmol/kg bw, ip.) were tested, and the levels found in mouse brain tissue 30 min and 3 h post injection were examined.

The conditions of data set [2]: Kastin et al 2001; McClean et al 2011; cited from earlier work.

As to `CCCCCCCCCCCCCCCC(=O)N[C@@H](CCC(=O)NCCCC[C@H](NC(=O)[C@H](C)NC(=O)[C@H](C)NC(=O)[C@H](CCC(N)=O)NC(=O)CNC(=O)[C@H](CCC(=O)O)NC(=O)[C@H](CC(C)C)NC(=O)[C@H](Cc1ccc(O)cc1)NC(=O)[C@H](CO)NC(=O)[C@H](CO)NC(=O)[C@@H](NC(=O)[C@H](CC(=O)O)NC(=O)[C@H](CO)NC(=O)[C@@H](NC(=O)[C@H](Cc1ccccc1)NC(=O)[C@@H](NC(=O)CNC(=O)[C@H](CCC(=O)O)NC(=O)[C@H](C)NC(=O)[C@@H](N)Cc1cnc[nH]1)[C@@H](C)O)[C@@H](C)O)C(C)C)C(=O)N[C@@H](CCC(=O)O)C(=O)N[C@@H](Cc1ccccc1)C(=O)N[C@H](C(=O)N[C@@H](C)C(=O)N[C@@H](Cc1c[nH]c2ccccc12)C(=O)N[C@@H](CC(C)C)C(=O)N[C@H](C(=O)N[C@@H](CCCNC(=N)N)C(=O)NCC(=O)N[C@@H](CCCNC(=N)N)C(=O)NCC(=O)O)C(C)C)[C@@H](C)CC)C(=O)O` [liraglutide, Arg^34,Lys^26(N^ε(γ-glutamyl(N^α-hexadecanoyl)))GLP-1(7-37)], in data set [1], the “Levels in the brain at the lowest dose” value was “did not show an increase”. In addition, the “Crossing of the blood brain barrier (BBB)” value in data set [2] was “have been shown to cross the blood brain barrier”.

For the molecule “GLP-1: 30-amino acid peptide hormone encoded in the proglucagon gene”, in data set [2], the “Crossing of the blood brain barrier (BBB)” value is given as “have been shown to cross the blood brain barrier”.
